The numbers were not newly measured in US12281362B2, “Diagnostic tools and treatments for clear cell renal cell carcinoma” (University of Cincinnati, priority 2020, dated 2025), which cites them from elsewhere.

The conditions of data set [1]: clinic.
In another data set the test system is localized RCC. Particulars: adjuvant setting.

`CCN(CC)CCNC(=O)c1c(C)[nH]c(/C=C2\C(=O)Nc3ccc(F)cc32)c1C` [Sunitinib]: in data set [1], the adverse effects entry was “serious adverse effects”.
Turning to `CNC(=O)c1cc(Oc2ccc(NC(=O)Nc3ccc(Cl)c(C(F)(F)F)c3)cc2)ccn1` [sorafenib], the survival result in the data set with localized RCC is “did not improve survival”.
